Read-outs that look alike come from different tables or passages of the source.
System: peripheral blood mononuclear cells (PBMC) stimulated with allogeneic PBMC or EBV-transformed human B cells (RPMI1788)
Experiment: Mixed lymphocyte reaction (MLR) assay
Type: cell-based
Method in brief: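 Responder PBMC co-cultured in triplicate with 30 Gy-irradiated allogeneic PBMC or RPMI1788 B cells plus compound (DMSO stock 10 mM, diluted in medium). After 5 days at 37° C, 1 μCi [3H]-thymidine added for 16 h more; incorporated cpm counted and proliferation inhibition calculated.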

[1] = Homo sapiens, RPMI-1788, 50% suppression of the MLR, [3H]-thymidine incorporation, read-out: MLR
[2] = Homo sapiens, RPMI-1788, MLR assay of example 319, read-out: MLR IC50

Compound | IC50 [2] | also measured
Nc1nc(N2CCOCC2)c2nc(-c3ccc(Cl)c(Cl)c3)ccc2n1 [184/231, 2-amino-4-(morpholino)-6-(3,4-dichlorophenyl)-pyrido[3,2-d]pyrimidine] |  | IC50 [1]: 3900 nM
CC(Cl)C(=O)N1CCN(c2nc(N)nc3ccc(-c4ccc(F)cc4)nc23)CC1 (centres unmarked) [Example 468, 2-amino-4-[4-(2-chloropropionyl)piperazin-1-yl]-6-(4-fluorophenyl)-pyrido[3,2-d]pyrimidine] | 3200 nM | 
Cc1cccc(NC(=O)N2CCN(c3nc(CN(C)C)nc4ccc(-c5ccc(F)cc5)nc34)CC2)c1 [Example 537, 2-(N,N-dimethylamino)methyl-4-[N-(3-methylphenylcarbamoyl)piperazin-1-yl]-6-(4-fluorophenyl)-pyrido[3,2-d]pyrimidine] | 3300 nM | 
Cc1cccc(NC(=O)N2CCN(c3nc(N)nc4ccc(-c5ccc(C(F)(F)F)cc5)nc34)CC2)c1 [Example 548, 2-amino-4-[(3-methylphenylcarbamoyl)-piperazin-1-yl]-6-(4-trifluoromethylphenyl)-pyrido[3,2-d]pyrimidine] | 170 nM | 
COc1cccc(-c2ccc3nc(N)nc(N4CCN(C(=O)COc5ccc(Cl)cc5)CC4)c3n2)c1 [Example 418, 2-amino-4-[4-(4-chlorophenoxyacetyl)piperazin-1-yl]-6-(3-methoxyphenyl)pyrido-[3,2-d]pyrimidine] | 57 nM | 
Cc1ccc(-c2ccc3nc(N)nc(N4CCN(C(=O)COc5ccc(Cl)cc5)CC4)c3n2)cc1C [Example 516, 2-amino-4-[N-(4-chlorophenoxyacetyl)-piperazin-1-yl]-6-(3,4-dimethyl-phenyl)-pyrido(3,2-d)pyrimidine] | 56 nM | 
Nc1nc(N2CCN(C(=O)COc3ccc(Cl)cc3)CC2)c2nc(-c3ccc(F)c(F)c3)ccc2n1 [Example 404, 2-amino-4-[4-(4-chlorophenoxyacetyl)piperazin-1-yl]-6-(3,4-difluorophenyl)pyrido-[3,2-d]pyrimidine] | 40 nM | 
Nc1nc(N2CCN(C(=O)COc3ccc(Cl)cc3)CC2)c2nc(-c3cccc(F)c3)ccc2n1 [Example 401, 2-amino-4-[4-(4-chlorophenoxyacetyl)piperazin-1-yl]-6-(3-fluorophenyl)pyrido-[3,2-d]pyrimidine] | 300 nM | 
Nc1nc(N2CCN(C(=O)COc3ccc(Cl)cc3)CC2)c2nc(-c3c(F)cccc3F)ccc2n1 [Example 428, 2-amino-4-[4-(4-chlorophenoxyacetyl)piperazin-1-yl]-6-(2,6-difluorophenyl)pyrido-[3,2-d]pyrimidine] | 300 nM | 
Cc1cc(-c2ccc3nc(N)nc(N4CCN(C(=O)COc5ccc(Cl)cc5)CC4)c3n2)ccc1F [Example 420, 2-amino-4-[4-(4-chlorophenoxyacetyl)piperazin-1-yl]-6-(4-fluoro-3-methylphenyl)-pyrido-[3,2-d]pyrimidine] | 300 nM | 
Cc1cccc(NC(=O)N2CCN(c3ncnc4ccc(-c5ccco5)nc34)CC2)c1 [Example 563, 4-[(3-methylphenylcarbamoyl)-piperazin-1-yl]-6-(2-furanyl)pyrido[3,2-d]pyrimidine] | 36 nM | 
Cc1cccc(NC(=O)N[C@@H]2CCN(c3nc(N)nc4ccc(-c5ccc(F)cc5)nc34)C2)c1 [Example 579] | > 10000 nM | 
COc1ccc(-c2ccc3nc(OCCOc4ccccc4)nc(N4CCN(C(=O)Nc5cccc(C)c5)CC4)c3n2)cc1OC [Example 18] |  | IC50 (50% suppression of the MLR, [3H]-thymidine incorporation, read-out: MLR): 900 nM
CNC(=O)c1ccc(-c2ccc3nc(N)nc(N4CCN(C(=O)COc5ccc(Cl)cc5)CC4)c3n2)cc1 [Example 443, 2-amino-4-[4-(4-chlorophenoxyacetyl)piperazin-1-yl]-6-[4-(methylaminocarbonyl)phenyl]-pyrido-[3,2-d]pyrimidine] | 7 nM | 
Nc1nc(N2CCN(C(=O)COc3ccc(Cl)cc3)CC2)c2nc(-c3cc(Cl)ccc3F)ccc2n1 [Example 431, 2-amino-4-[4-(4-chlorophenoxyacetyl)piperazin-1-yl]-6-(5-chloro-2-fluorophenyl)-pyrido-[3,2-d]pyrimidine] | 330 nM | 
Nc1nc(N2CCN(C(=O)c3ccco3)CC2)c2nc(-c3ccc4c(c3)OCCO4)ccc2n1 [Example 203, 2-amino-4-[N-(2-furoyl)-piperazin-1-yl]-6-(1,4-benzo-dioxane)-pyrido[3,2-d]pyrimidine] |  | IC50 [1]: 5700 nM
O=C(COc1ccc(Cl)cc1)N1CCN(c2nc(NC3CCCC3)nc3ccc(-c4ccc(F)cc4)nc23)CC1 [Example 573, 2-cyclopentylamino-6-(4-fluorophenyl)-4-[N-(4-chlorophenoxyacetyl)-piperazin-1-yl]-pyrido[3,2-d]pyrimidine] | 8000 nM | 
C[C@H]1CN(C(=O)OCc2ccccc2)CCN1c1nc(N)nc2ccc(-c3ccc(F)cc3)nc12 [Example 486, (S)-4-[2-amino-6-(4-fluorophenyl)-pyrido[3,2-d]pyrimidin-4-yl]-3-methylpiperazine-1-carboxylic acid benzyl ester] | 800 nM | 

Compound | IC50 [2] | also measured
Nc1nc(N2CCN(C(=O)COc3ccc(Cl)cc3)CC2)c2nc(-c3ccc(CO)cc3)ccc2n1 [Example 441, 2-amino-4-[4-(4-chlorophenoxyacetyl)piperazin-1-yl]-6-[4-(hydroxymethyl)phenyl]pyrido-[3,2-d]pyrimidine] | 8 nM | 
N#CCc1ccc(-c2ccc3nc(N)nc(N4CCN(C(=O)COc5ccc(Cl)cc5)CC4)c3n2)cc1 [Example 499, 2-amino-4-[N-(4-chlorophenoxyacetyl)-piperazin-1-yl]-6-(4-cyanomethyl-phenyl)-pyrido(3,2-d)pyrimidine] | 11 nM | 
Nc1nc(N2CCN(C(=O)CCOc3ccc(Cl)cc3)CC2)c2nc(-c3ccc(F)cc3)ccc2n1 [Example 473, 2-amino-4-{4-[3-(4-chlorophenoxy)propionyl]-piperazin-1-yl}-6-(4-fluorophenyl)-pyrido[3,2-d]pyrimidine] | 500 nM | 
Cc1cccc(NC(=O)N2CCN(c3ncnc4ccc(-c5ccc(C#N)cc5)nc34)CC2)c1 [Example 553, 4-[(3-methylphenylcarbamoyl)-piperazin-1-yl]-6-(4-cyanophenyl) Pyrido[3,2-d]pyrimidine] | 60 nM | 
NCC(=O)N1CCN(c2nc(N)nc3ccc(-c4ccc(F)cc4)nc23)CC1 [Example 444, 2-amino-4-[4-(aminoacetyl)-piperazin-1-yl]-6-(4-fluorophenyl)-pyrido[3,2-d]pyrimidine] | 2300 nM | 
CC(C)(C)OC(=O)NC(Cc1ccc(Cl)cc1)C(=O)N1CCN(c2nc(N)nc3ccc(-c4ccc(F)cc4)nc23)CC1 (stereo in doubt) [Example 477, (S)-[2-{4-[2-amino-6-(4-fluorophenyl)-pyrido[3,2-d]pyrimidin-4-yl]-piperazin-1-yl}-1-(4-chlorobenzyl)-2-oxoethyl]-carbamic acid tert-butyl ester] | 4900 nM | 
Nc1nc(N2CCN(C(=O)COc3ccc(Cl)cc3)CC2)c2nc(-c3cccc(Cl)c3)ccc2n1 [Example 406, 2-amino-4-[4-(4-chlorophenoxyacetyl)piperazin-1-yl]-6-(3-chlorophenyl)pyrido-[3,2-d]pyrimidine] | 70 nM | 
CC(C)(C)OC(=O)N1C[C@@H]2C[C@H]1CN2c1nc(N)nc2ccc(-c3ccc(F)cc3)nc12 [Example 483, (S,S)-5-[2-amino-6-(4-fluorophenyl)-pyrido[3,2-d]pyrimidin-4-yl]-2,5-diaza-bicyclo[2.2.1]heptane-2-carboxylic acid tert-butyl ester] | 6100 nM | 
Cc1ccccc1-c1ccc2nc(N)nc(N3CCN(C(=O)COc4ccc(Cl)cc4)CC3)c2n1 [Example 512, 2-amino-4-[N-(4-chlorophenoxyacetyl)-piperazin-1-yl]-6-(2-methyl-phenyl)-pyrido(3,2-d)pyrimidine] | 8 nM | 
Nc1nc(N2CCN(C(=O)C(N)Cc3ccc(Cl)cc3)CC2)c2nc(-c3ccc(F)cc3)ccc2n1 (stereo in doubt) [Example 488, (S)-2-amino-4-{4-[3-(4-chlorophenyl)-2-aminopropionyl]piperazin-1-yl}-6-(4-fluorophenyl)-pyrido[3,2-d]pyrimidine] | 4300 nM | 
Nc1nc(NC2CCN(C(=O)COc3ccccc3)CC2)c2nc(-c3ccc(F)cc3)ccc2n1 [Example 485, 2-amino-4-[1-(phenoxyacetyl)piperid-4-ylamino]-6-(4-fluorophenyl)-pyrido[3,2-d]pyrimidine] | 300 nM | 
N#CCOc1ccc(-c2ccc3nc(N)nc(N4CCN(C(=O)COc5ccc(Cl)cc5)CC4)c3n2)cc1 [Example 503, 2-amino-4-[N-(4-chlorophenoxyacetyl)-piperazin-1-yl]-6-(4-cyano-methoxyphenyl)-pyrido(3,2-d)pyrimidine] | 20 nM | 
COc1ccccc1-c1ccc2nc(N)nc(N3CCN(C(=O)COc4ccc(Cl)cc4)CC3)c2n1 [Example 422, 2-amino-4-[4-(4-chlorophenoxyacetyl)piperazin-1-yl]-6-(2-methoxyphenyl)pyrido-[3,2-d]pyrimidine] | 100 nM | 
Nc1nc(N2CCN(C(=O)COc3ccc(Cl)cc3)CC2)c2nc(-c3ccc(OC(F)(F)F)cc3)ccc2n1 [Example 439, 2-amino-4-[4-(4-chlorophenoxyacetyl)piperazin-1-yl]-6-(4-trifluoromethoxyphenyl)-pyrido-[3,2-d]pyrimidine] | 300 nM | 
Nc1nc(N2CCN(C(=O)COc3ccc(F)cc3)CC2)c2nc(-c3ccc(F)cc3)ccc2n1 [Example 387, 2-amino-4-[4-(4-fluorophenoxyacetyl)piperazin-1-yl]-6-(4-fluorophenyl)-pyrido[3,2-d]pyrimidine] | 200 nM | 
Nc1nc(N2CCN(C(=O)COc3ccc(Cl)cc3)CC2)c2nc(Cl)ccc2n1 [Example 492, 2-amino-4-(N-(4-chlorophenoxyacetyl)-piperazin-1-yl)-6-chloro-pyrido[3,2-d]pyrimidine] | 80 nM | 
Nc1nc(N2CCN(C(=O)OCc3ccccc3)CC2)c2nc(-c3ccc(F)cc3)ccc2n1 [Example 458, 2-amino-4-[4-(benzyloxycarbonyl)-piperazin-1-yl]-6-(4-fluorophenyl)-pyrido[3,2-d]pyrimidine] | 700 nM | 

From US20090264415A2 (priority 2004, published 2009)
